The source of these data is patent publication US11825838B2, “Tricyclic carboxamides for controlling arthropods” (Bayer CropScience Aktiengesellschaft, priority 2017, dated 2023).

Common to all, as to format: in vivo
One experiment deals with Ctenocephalides felis. Put plainly: Ctenocephalides felis oral test. The settings on record: application rate 100 ppm in citrated cattle blood, after 2 days. On the procedure:
Ctenocephalides felis—Oral Test
(§1) Solvent: dimethyl sulfoxide
To produce a suitable active ingredient formulation, 10 mg of active ingredient are mixed with 0.5 ml of dimethyl sulfoxide. Dilution with citrated cattle blood gives the desired concentration.
About 20 unfed adult cat fleas (Ctenocephalides felis) are placed into a chamber which is closed at the top and bottom with gauze. A metal cylinder whose bottom end is closed with parafilm is placed onto the chamber. The cylinder contains the blood/active ingredient formulation, which can be imbibed by the fleas through the parafilm membrane.
After 2 days, the rate of extermination in % is determined. 100% means that all of the fleas have been killed; 0% means that none of the fleas have been killed.

Another experiment has as its system Lucilia cuprina. Put plainly: Lucilia cuprina test. Conditions: application rate 100 ppm, L1 larvae, after 2 days. On the procedure:
as §1
(§2) To produce a suitable active ingredient formulation, 10 mg of active ingredient are mixed with 0.5 ml of dimethyl sulfoxide, and the concentrate is diluted with water to the desired concentration.
About 20 L1 larvae of the Australian sheep blowfly (Lucilia cuprina) are transferred into a test vessel containing minced horsemeat and the active compound preparation of the desired concentration.
After 2 days, the rate of extermination in % is determined. 100% means that all the larvae have been killed; 0% means that no larvae have been killed.

Another experiment deals with Phaedon cochleariae. The experiment can be described thus: Phaedon cochleariae spray test (PHAECO). The settings on record: for efficacy / pest or weed control at 100 g/ha: application rate 100 g/ha, spray, after 7 days; for pest or weed control at 100 g/ha: read-out: efficacy. The method, then: Phaedon cochleariae—Spray Test
(§3) To produce a suitable active ingredient formulation, 1 part by weight of active ingredient is dissolved with the specified parts by weight of solvent and made up to the desired concentration with water containing an emulsifier concentration of 1000 ppm. To produce further test concentrations, the formulation is diluted with emulsifier-containing water.
After 7 days, the efficacy in % is determined. 100% means that all the beetle larvae have been killed; 0% means that no beetle larvae have been killed.
Phaedon cochleariae—Spray Test (PHAECO)
(§4) To produce a suitable active compound formulation, 1 part by weight of active compound is dissolved with the specified parts by weight of solvent and made up to the desired concentration with water containing an emulsifier concentration of 1000 ppm. To produce further test concentrations, the formulation is diluted with emulsifier-containing water.
Discs of Chinese cabbage leaves (Brassica pekinensis) are sprayed with an active compound formulation of the desired concentration and, after drying, populated with larvae of the mustard beetle (Phaedon cochleariae).
After the desired time, the efficacy in % is determined. 100% means that all the beetle larvae have been killed; 0% means that no beetle larvae have been killed.

Another experiment concerns Spodoptera frugiperda. The experiment can be described thus: Spodoptera frugiperda spray test (SPODFR). The settings on record: for pest or weed control at 100 g/ha / efficacy: application rate 100 g/ha, spray, after 7 days; for pest or weed control at 100 g/ha: read-out: efficacy. On the procedure:
Spodoptera frugiperda—Spray Test
as §3
Leaf discs of maize (Zea mays) are sprayed with an active ingredient formulation of the desired concentration and, after drying, populated with caterpillars of the armyworm (Spodoptera frugiperda).
After 7 days, the efficacy in % is determined. 100% means that all the caterpillars have been killed; 0% means that no caterpillar has been killed.
Spodoptera frugiperda—Spray Test (SPODFR)
as §4
Leaf discs of maize (Zea mays) are sprayed with an active compound formulation of the desired concentration and, after drying, populated with caterpillars of the armyworm (Spodoptera frugiperda).
After the desired time, the efficacy in % is determined. 100% means that all the caterpillars have been killed; 0% means that no caterpillar has been killed.

Another experiment concerns Boophilus microplus. Put plainly: Boophilus microplus injection test. Conditions: application rate 20 μg/animal, assessed after 7 days by laying of fertile eggs. On the procedure: Boophilus microplus—Injection Test
as §1
To produce a suitable active compound preparation, 10 mg of active compound are mixed with 0.5 ml of solvent and the concentrate is diluted to the desired concentration with solvent.
1 μl of the active ingredient solution is injected into the abdomen of 5 engorged adult female cattle ticks (Boophilus microplus). The animals are transferred into dishes and kept in a climate-controlled room.
(§5) Efficacy is assessed after 7 days by laying of fertile eggs. Eggs which are not visibly fertile are stored in a climate-controlled cabinet until the larvae hatch after about 42 days. An efficacy of 100% means that none of the ticks has laid any fertile eggs; 0% means that all the eggs are fertile.

Another experiment deals with Rhipicephalus sanguineus. Put plainly: Rhipicephalus sanguineus in vitro contact test with adult brown dog ticks. Conditions: application rate 5 μg/cm^2 (=500 g/ha), after 48 h, adult dog ticks dead or moribund. On the procedure: Rhipicephalus sanguineus—In Vitro Contact Tests with Adult Brown Dog Ticks
For the coating of the test tubes, 9 mg of active ingredient are first dissolved in 1 ml of acetone p.a. and then diluted to the desired concentration with acetone p.a. 250 μl of the solution are distributed homogeneously on the inner walls and the base of a 25 ml glass tube by turning and rocking on an orbital shaker (rocking rotation at 30 rpm for 2 h). With 900 ppm of active ingredient solution and internal surface area 44.7 cm^2, given homogeneous distribution, an area-based dose of 5 μg/cm^2 is achieved.
After the solvent has evaporated off, the tubes are populated with 5-10 adult dog ticks (Rhipicephalus sanguineus), sealed with a perforated plastic lid and incubated in a horizontal position in the dark at room temperature and ambient humidity. After 48 h, efficacy is determined. To this end, the ticks are knocked to the base of the tube and incubated on a hotplate at 45-50° C. for not more than 5 min. Ticks which remain motionless on the base or move in such an uncoordinated manner that they are unable to deliberately avoid the heat by climbing upwards are considered to be dead or moribund.
An efficacy of 100% means that all the ticks were dead or moribund. 0% efficacy means that none of the ticks were harmed.

For another experiment, the system named is Musca domestica. The experiment can be described thus: Musca domestica test. The settings on record: application rate 100 ppm, adult houseflies, after 2 days. On the procedure: as §1, §2
Vessels containing a sponge treated with sugar solution and the active ingredient formulation of the desired concentration are populated with 10 adult houseflies (Musca domestica).
After 2 days, the rate of extermination in % is determined. 100% means that all of the flies have been killed; 0% means that none of the flies have been killed.

The next experiment concerns Tetranychus urticae. The experiment can be described thus: Tetranychus urticae spray test, OP-resistant (TETRUR). Conditions: for efficacy: spray, after 6 days. On the procedure:
Tetranychus urticae—Spray Test, OP-Resistant
as §3
Discs of bean leaves (Phaseolus vulgaris) infested with all stages of the greenhouse red spider mite (Tetranychus urticae) are sprayed with an active compound preparation of the desired concentration.
After 6 days, the efficacy in % is determined. 100% means that all the spider mites have been killed; 0% means that no spider mites have been killed.
Tetranychus urticae—Spray Test; OP-Resistant (TETRUR)
as §4
Discs of bean leaves (Phaseolus vulgaris) infested with all stages of the greenhouse red spider mite (Tetranychus urticae) are sprayed with an active compound formulation of the desired concentration.
After the desired time, the efficacy in % is determined. 100% means that all the spider mites have been killed; 0% means that no spider mites have been killed.

Experiment [1] relates to cattle ticks (Boophilus microplus) Parkhurst strain, SP-resistant. Put plainly: Boophilus microplus dip test. The settings on record: application rate 100 ppm, assessed after 7 days by laying of fertile eggs. The method, then:
Boophilus microplus—Dip Test
Test animals: cattle ticks (Boophilus microplus) Parkhurst strain, SP-resistant
as §1
10 mg of active ingredient are dissolved in 0.5 ml of dimethyl sulfoxide. To produce a suitable formulation, the active ingredient solution is diluted with water to the concentration desired in each case. This active ingredient formulation is pipetted into tubes. 8-10 engorged adult female cattle ticks (Boophilus microplus) are transferred into a further tube with holes. The tube is immersed into the active ingredient formulation, and all the ticks are completely wetted. After the liquid has run out, the ticks are transferred on filter discs into plastic dishes and stored in a climate-controlled room.
as §5

In the next experiment the test system is Myzus persicae. The experiment can be described thus: Myzus persicae spray test (MYZUPE). Conditions: Myzus persicae, 144 h; MYZUPE, 100 g ai/ha, 6 dat; read-out: % efficacy dat. On the procedure:
Myzus persicae—Spray Test
as §3
Discs of Chinese cabbage leaves (Brassica pekinensis) infested by all stages of the green peach aphid (Myzus persicae) are sprayed with an active compound preparation of the desired concentration.
After 5 days, the efficacy in % is determined. 100% means that all the aphids have been killed; 0% means that no aphids have been killed.
Myzus Persicae—Spray Test (MYZUPE)
as §4
Discs of Chinese cabbage leaves (Brassica pekinensis) infested with all stages of the green peach aphid (Myzus persicae) are sprayed with an active compound formulation of the desired concentration.
After the desired time, the efficacy in % is determined. 100% means that all the aphids have been killed; 0% means that no aphids have been killed.

Consider `O=C(NC1CC1)c1csc(-c2cnn(-c3c(Cl)cc(C(F)(C(F)(F)F)C(F)(F)F)cc3Cl)c2)n1` [I-T1-8], for which the “efficacy (rate of extermination)” value in the experiment on Ctenocephalides felis came to 100%; with Lucilia cuprina, 80%. In the experiment on Phaedon cochleariae, this compound displayed an efficacy of 83%.

For the compound `CN(C(=O)c1cc(-c2cnn(-c3c(Cl)cc(C(F)(C(F)(F)F)C(F)(F)F)cc3Cl)c2)sc1Cl)C1(C#N)CC1` [I-T1-18, 2-chloro-N-(1-cyanocyclopropyl)-5-{1-[2,6-dichloro-4-(1,1,1,2,3,3,3-heptafluoropropan-2-yl)phenyl]-1H-pyrazol-4-yl}-N-methylthiophene-3-carboxamide], the pest or weed control at 100 g/ha in the experiment on Phaedon cochleariae (Phaedon cochleariae, 168 h) is 100%; with Spodoptera frugiperda (Spodoptera frugiperda, 168 h) it was 100%.

In the case of `Cn1cc(-c2cnn(-c3c(Cl)cc(C(F)(C(F)(F)F)C(F)(F)F)cc3Cl)c2)cc1C(=O)NC1(C#N)CC1` [I-T1-4], the efficacy in the experiment on Boophilus microplus and in the experiment on Phaedon cochleariae was 100% in each case. For the same compound, the “efficacy (rate of extermination)” value with Ctenocephalides felis and with Lucilia cuprina was 100% throughout.

For the compound `N#CC1(NC(=O)c2cc(-c3cnn(-c4c(Cl)cc(C(F)(C(F)(F)F)C(F)(F)F)cc4Cl)c3)sc2I)CC1` [I-T1-15], the efficacy is 80% with Rhipicephalus sanguineus; 100% with Boophilus microplus; 100% in the experiment with Phaedon cochleariae; 100% in the experiment on Spodoptera frugiperda; 90% in the experiment with Tetranychus urticae (application rate 20 g/ha); 100% in the experiment on Tetranychus urticae (application rate 100 g/ha). The “efficacy (rate of extermination)” value in the experiment with Ctenocephalides felis, in the experiment on Lucilia cuprina and in the experiment on Musca domestica was 100% in each case.

As for `O=C(NC1CC1)c1cc(-c2cnn(-c3c(Cl)cc(C(F)(C(F)(F)F)C(F)(F)F)cc3Cl)c2)sc1I` [I-T1-14], the efficacy (in the experiment on Rhipicephalus sanguineus; in experiment [1]; in the experiment with Boophilus microplus; in the experiment on Phaedon cochleariae; in the experiment on Spodoptera frugiperda; in the experiment with Tetranychus urticae (application rate 100 g/ha)) was 100% each time. Also, the “efficacy (rate of extermination)” value with Ctenocephalides felis, with Lucilia cuprina and in the experiment on Musca domestica was 100% in each case.

Regarding `CS(=O)(=O)NC(=O)c1csc(-c2cnn(-c3cccnc3)c2)n1` [Example No. 36 WO2012/000896, reference compound], the Emax at 100 g/ha in the experiment with Myzus persicae stood at 0%. In addition, the Emax at 500 g/ha in the experiment with Phaedon cochleariae (Phaedon cochleariae, 168 h, PHAECO, 500 g ai/ha, 7 dat, read-out: % efficacy dat) was determined as 0%; in the experiment on Spodoptera frugiperda (Spodoptera frugiperda, 168 h, SPODFR, 500 g ai/ha, 7 dat, read-out: % efficacy dat), 0%; with Tetranychus urticae (Tetranychus urticae, 144 h, TETRUR, 500 g ai/ha, 6 dat, read-out: % efficacy dat), 0%.

Take `N#CC1(NC(=O)c2csc(-c3cnn(-c4c(Cl)cc(C(F)(C(F)(F)F)C(F)(F)F)cc4Cl)c3)n2)CC1` [I-T1-5, N-(1-cyanocyclopropyl)-2-{1-[2,6-dichloro-4-(1,1,1,2,3,3,3-heptafluoropropan-2-yl)phenyl]-1H-pyrazol-4-yl}-1,3-thiazole-4-carboxamide]: the “efficacy (rate of extermination)” value in the experiment with Ctenocephalides felis was 100%; in the experiment on Lucilia cuprina, 80%; in the experiment on Musca domestica it was 90%. The pest or weed control at 100 g/ha in the experiment on Phaedon cochleariae (Phaedon cochleariae, 168 h) turned out to be 100%.

For the compound `N#CC1(NC(=O)c2cc(-c3cnn(-c4c(Cl)cc(C(F)(C(F)(F)F)C(F)(F)F)cc4Cl)c3)sc2Cl)CC1` [I-T1-17, 2-chloro-N-(1-cyanocyclopropyl)-5-{1-[2,6-dichloro-4-(1,1,1,2,3,3,3-heptafluoropropan-2-yl)phenyl]-1H-pyrazol-4-yl}thiophene-3-carboxamide], the pest or weed control at 100 g/ha in the experiment with Phaedon cochleariae (Phaedon cochleariae, 168 h) worked out at 100%; in the experiment with Spodoptera frugiperda (Spodoptera frugiperda, 168 h), 100%. Also, the efficacy in the experiment on Tetranychus urticae (application rate 20 g/ha) and in the experiment on Tetranychus urticae (application rate 100 g/ha) was 100% in each case.

With `O=C(NC1CC1)c1nc(-c2cnn(-c3c(Cl)cc(C(F)(C(F)(F)F)C(F)(F)F)cc3Cl)c2)sc1Cl` [I-T1-7], the efficacy in the experiment with Boophilus microplus is reported as 100%; in the experiment with Phaedon cochleariae it was 83%.

In the case of `O=C(NCc1ccccc1)c1cc(-c2cnn(-c3c(Cl)cc(C(F)(C(F)(F)F)C(F)(F)F)cc3Cl)c2)sc1Br` [I-T1-6], the efficacy in the experiment on Boophilus microplus and in the experiment with Spodoptera frugiperda was 100% each time. Moreover, the “efficacy (rate of extermination)” value turned out to be 100% with Ctenocephalides felis and 95% with Lucilia cuprina.
